Data on 10 molecules can be found in ChEMBL document CHEMBL1201862, “PubChem BioAssay data set” (2004).

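Growth conditions: 96-well plates. Treatment: test compound, 48 hours, 5 concentrations. Analysis: linear interpolation between bracketing concentrations; unreached endpoints set to highest concentration. Here, GI50 denotes the concentration required for 50% inhibition of growth.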 The source made the active and inactive calls. Cut-off read from the data, not from the text of the source: active = GI50 up to about 1.1 µM and inactive = higher.

What all share (experiment): NCI anticancer screen, dose series, 48 h
Test [1] relates to BT-549.
Test [2] deals with CAKI-1.
Test [3] concerns HCC 2998.
In test [4] the test system is HL-60.
The subject of test [5] is HOP-92.
The subject of test [6] is HT-29.
Test [7] concerns IGROV-1.
Test [8] deals with KM12.
The test system of test [9] is M14.
Test [10] deals with MCF7.
Test [11] relates to Malme-3M.
Test [12] has as its system OVCAR-3.
In test [13] the test system is OVCAR-4.
The subject of test [14] is PC-3.
In test [15] the test system is RPMI-8226.
In test [16] the test system is RXF 393.
The subject of test [17] is SK-OV-3.
Test [18] concerns U-251.
Test [19] has as its system UACC-257.
For test [20], the system named is UO-31.

For the molecule `Cc1cccc2c(=O)c3c(O)cc(O)cc3n(C)c12`, the GI50 in test [1] was > 100 µM (inactive); in [2] it was > 100 µM (inactive); in test [3] it was > 100 µM (inactive); in [4], > 100 µM (inactive); in test [5], 91.4 µM (inactive); in test [6], > 100 µM (inactive). The GI50 in [7], in test [8], in [9], in test [10], in [11] and in [12] was > 100 µM (inactive) in each case. The GI50 in [13], in test [14], in test [15], in test [16], in [17] and in test [18] was > 100 µM (inactive) each time. Besides, the GI50 in [19] is > 100 µM (inactive).

For `Cc1cc(O)ccc1C1(c2ccc(F)cc2)OC(=O)c2ccccc21` (centres undefined), the GI50 in test [1] was 0.208 µM (active); in [2] it was 3.78 µM (inactive); in [3], 4.33 µM (inactive); in test [4] it was 34 µM (inactive); in test [5], 1.99 µM (inactive); in test [6] it was 5.09 µM (inactive). The GI50 in test [7] was 2.21 µM (inactive); in test [9], 13.6 µM (inactive); in test [10] it was 1.34 µM (inactive); in test [11] it was 12.7 µM (inactive); in test [12] it was 0.236 µM (active); in test [13], 0.289 µM (active). Further, the GI50 in [14] was 2.24 µM (inactive); in test [15], 21.7 µM (inactive); in test [16], 1.24 µM (inactive); in test [17], 3.65 µM (inactive); in [18], 15.5 µM (inactive); in [19], 12.6 µM (inactive). Also, the GI50 in test [20] is 4 µM (inactive).

`OCCOCn1nncc1Cn1ncc2c(O)ncnc21`: the GI50 in [1] is > 100 µM (inactive); in test [2], > 100 µM (inactive); in test [3], > 100 µM (inactive); in test [4] it was 23.9 µM (inactive); in [5] it was > 100 µM (inactive); in test [6], 40 µM (inactive). Besides, the GI50 in test [7] is > 100 µM (inactive); in test [8], 32.6 µM (inactive); in [9] it was > 100 µM (inactive); in test [10], 48.8 µM (inactive); in test [11] it was > 100 µM (inactive); in test [12] it was 28.6 µM (inactive). Further, the GI50 in test [13] is > 100 µM (inactive); in test [14], 55.1 µM (inactive); in test [16] it was > 100 µM (inactive); in test [17] it was 71.6 µM (inactive); in test [18], > 100 µM (inactive); in test [19], > 100 µM (inactive). Moreover, the GI50 in [20] was > 100 µM (inactive).

Take `CCN(CC)CCn1c2cc3c(cc2c(=O)c2cccnc21)OCO3`: the GI50 in [1] is > 10 µM (inactive); in test [2], 9.14 µM (inactive); in test [3], 9.04 µM (inactive); in test [4] it was 4.58 µM (inactive); in test [5], 6.95 µM (inactive); in test [6] it was 4.04 µM (inactive). Besides, the GI50 was 4.88 µM (inactive) in test [7]; 5.94 µM (inactive) in test [8]; 4.95 µM (inactive) in test [9]; 3.89 µM (inactive) in test [10]; 4.84 µM (inactive) in test [11]; 5.14 µM (inactive) in test [12]. Further, the GI50 in test [13] is 5.36 µM (inactive); in test [14] it was 7.43 µM (inactive); in test [15], 3.93 µM (inactive); in [16], 5.86 µM (inactive); in [17] it was 9.84 µM (inactive); in [18] it was 6.65 µM (inactive). Moreover, the GI50 in [19] is 6.1 µM (inactive).

Regarding `COc1cnnc2c(C)c(-c3ccccc3)nn12`, the GI50 in test [1] is > 100 µM (inactive); in [2] it was 57 µM (inactive); in test [3] it was > 100 µM (inactive); in [4], > 100 µM (inactive); in test [5] it was 59.3 µM (inactive); in test [6], > 100 µM (inactive). Also, the GI50 in test [7] is 38.4 µM (inactive); in test [8] it was > 75.2 µM (inactive); in test [9], > 68.4 µM (inactive); in test [10], > 100 µM (inactive); in [11], 39.6 µM (inactive); in test [12] it was 59.2 µM (inactive). The GI50 in [13] is > 79.4 µM (inactive); in [14], > 86.5 µM (inactive); in test [15], 56.5 µM (inactive); in test [16], 0.436 µM (active); in [17], 47.6 µM (inactive); in test [18], > 70.3 µM (inactive). The figures for the GI50 in test [19] and in test [20] were > 90.8 µM (inactive) and 32.5 µM (inactive), respectively.

As for `CC1(C)CCCC2(C)C3=C(CCC12)C(=O)OC3` (centres undefined), the GI50 in test [1] is 80.5 µM (inactive); in test [2], 53.6 µM (inactive); in test [3], > 100 µM (inactive); in test [4], 17.6 µM (inactive); in test [5], > 100 µM (inactive); in test [6], 66.7 µM (inactive). The GI50 in [7], in [8], in test [9], in test [10], in test [11] and in test [12] was > 100 µM (inactive) in each case. Further, the GI50 in test [13] was 55.7 µM (inactive); in test [14] it was > 100 µM (inactive); in [15], 19.6 µM (inactive); in [16] it was 62.2 µM (inactive); in [17] it was > 100 µM (inactive); in [18] it was > 100 µM (inactive). The GI50 in [19] was > 100 µM (inactive); in test [20] it was 38.9 µM (inactive).

As to `CC(C)(C)OC(=O)N[C@H]1CC2(C=C(Cl)C(=O)C(Cl)=C2)OC1=O`, the GI50 is 16 µM (inactive) in test [1]; 13.5 µM (inactive) in test [2]; 16.6 µM (inactive) in test [3]; 2.13 µM (inactive) in test [4]; 16.9 µM (inactive) in [5]; 11.5 µM (inactive) in test [6]. Besides, the GI50 in test [7] was 18.7 µM (inactive); in [8] it was 17.7 µM (inactive); in test [9], 14.4 µM (inactive); in test [10] it was 6.79 µM (inactive); in test [11] it was 11.5 µM (inactive); in test [12], 14.8 µM (inactive). The GI50 in [13] is 16.3 µM (inactive); in test [14] it was 17.1 µM (inactive); in [15], 2.65 µM (inactive); in [16] it was 10.1 µM (inactive); in test [17], > 46.5 µM (inactive); in test [18], 20.7 µM (inactive). Moreover, the GI50 in [19] is 13.8 µM (inactive); in [20] it was 18.8 µM (inactive).

Consider `Cc1c(C)c(C)c(-n2c(=O)n(C)c(=O)n2-n2c(=O)n(C)c(=O)n2-c2c(C)c(C)c(C)c(C)c2C)c(C)c1C`, for which the GI50 in test [1] was > 100 µM (inactive); in test [2] it was > 100 µM (inactive); in [3], > 100 µM (inactive); in [4], 12.1 µM (inactive); in [5], > 100 µM (inactive); in test [6] it was > 100 µM (inactive). Also, the GI50 in test [7] was 51.5 µM (inactive); in [8], > 100 µM (inactive); in [9], > 100 µM (inactive); in test [10], > 100 µM (inactive); in test [11] it was > 100 µM (inactive); in test [12], > 100 µM (inactive). The GI50 in test [13], in test [14], in test [15], in [16], in test [17] and in test [18] was > 100 µM (inactive) throughout. Also, the GI50 in test [19] and in test [20] was > 100 µM (inactive) each time.

On to `COc1cc(-c2cc(=O)c3c(OC)c(OC)c(OC)c(OC)c3o2)c(OC)c(OC)c1OC`, for which the GI50 in test [1] is 17.6 µM (inactive); in test [2], 27.5 µM (inactive); in test [3], 49.3 µM (inactive); in test [4], 46.7 µM (inactive); in test [5], 13.9 µM (inactive); in test [6], 31 µM (inactive). The GI50 was 12.3 µM (inactive) in test [7]; 21.9 µM (inactive) in test [8]; 51.5 µM (inactive) in test [9]; 47.2 µM (inactive) in [10]; 23.8 µM (inactive) in test [11]; 30.7 µM (inactive) in [13]. Further, the GI50 was 14.3 µM (inactive) in [14]; 24.5 µM (inactive) in test [15]; 28.6 µM (inactive) in test [16]; 76.7 µM (inactive) in test [17]; 48.1 µM (inactive) in test [18]; 42.3 µM (inactive) in test [19]. The GI50 in test [20] was 21.6 µM (inactive).

For `O=S(=O)(O)c1ccc2cc(/N=N/c3c(O)ccc4ccccc34)ccc2c1`, the GI50 in test [1], in [2], in test [3], in test [4], in test [5] and in test [6] was > 100 µM (inactive) throughout. Moreover, the GI50 is > 100 µM (inactive) in test [7]; 97.5 µM (inactive) in test [8]; > 100 µM (inactive) in test [9]; > 100 µM (inactive) in test [10]; 82.6 µM (inactive) in test [11]; > 100 µM (inactive) in [12]. The GI50 in test [13], in test [14], in test [16], in test [17], in [18] and in test [19] was > 100 µM (inactive) each time. Also, in test [20], the GI50 was > 100 µM (inactive).
